Results: patent publication US8574563B2 (Bristol-Myers Squibb Company, priority 2006, dated 2013)

Tested on: HCV 1b-377-neo replicon cells
Assay: HCV replicon assay, HCV 1b-377-neo replicon cells (1b FRET)
Assay type: cell-based, Hepatitis C virus genotype 1b
Settings: Hepatitis C virus, HCV 1b-377-neo replicon cells; HCV 1b genotype; read-out: EC50 range against HCV 1b (Table 2, Range)
Outline: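 FRET-based replicon assay in HCV 1b-377-neo cells, including a comparison line carrying the NS5A Y2065H mutation that confers resistance to a reference compound.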

With `C[C@H](NC(=O)N(C)C)C(=O)N1CCC[C@H]1c1ncc(-c2ccc(-c3ccc(-c4cnc([C@@H]5CCCN5C(=O)[C@H](C)NC(=O)N(C)C)[nH]4)cc3)cc2)[nH]1` [OL-2, 3-((1S)-2-((2S)-2-(4-(4′-(2-((2S)-1-(N-(dimethylcarbamoyl)-L-alanyl)-2-pyrrolidinyl)-1H-imidazol-4-yl)-4-biphenylyl)-1H-imidazol-2-yl)-1-pyrrolidinyl)-1-methyl-2-oxoethyl)-1,1-dimethylurea] the EC50 was 0.001 to 0.999 nM.

`COC(=O)N[C@@H](C(=O)N1CCC[C@H]1c1ncc(-c2ccc(-c3ccc(-c4cnc([C@@H]5CCCN5C(=O)N(C)C)[nH]4)cc3)cc2)[nH]1)c1ccccc1` [Example 50, methyl ((1R)-2-((2S)-2-(5-(4′-(2-((2S)-1-(dimethylcarbamoyl)-2-pyrrolidinyl)-1H-imidazol-5-yl)-4-biphenylyl)-1H-imidazol-2-yl)-1-pyrrolidinyl)-2-oxo-1-phenylethyl)carbamate] gave an EC50 of 100 to 999 nM.

`CC[C@H](NC(=O)OC)C(=O)N1[C@@H]2C[C@@H]2C[C@H]1c1nc(-c2ccc(-c3ccc(-c4c[nH]c([C@@H]5C[C@H]6C[C@H]6N5C(=O)[C@H](CC)NC(=O)OC)n4)cc3)cc2)c[nH]1` [Example M133, dimethyl (4,4′-biphenyl-diylbis(1H-imidazole-4,2-diyl(1R,3S,5R)-2-azabicyclo[3.1.0]hexane-3,2-diyl((2S)-1-oxo-1,2-butanediyl)))biscarbamate] was tested, and the EC50 was 0.001 to 0.999 nM.

`CCN(CC)[C@@H](C(=O)N1CCC[C@H]1c1ncc(-c2ccc(-c3ccc(-c4cnc([C@@H]5CCCN5C(=O)[C@H](Cc5ccncc5)NC(=O)OC)[nH]4)cc3)cc2)[nH]1)c1ccccc1` [cj-89, methyl ((1S)-2-((2S)-2-(5-(4′-(2-((2S)-1-((2R)-2-(diethylamino)-2-phenylacetyl)-2-pyrrolidinyl)-1H-imidazol-5-yl)-4-biphenylyl)-1H-imidazol-2-yl)-1-pyrrolidinyl)-2-oxo-1-(4-pyridinylmethyl)ethyl)carbamate] showed an EC50 of 0.001 to 0.999 nM.

In the case of `COC(=O)N[C@H](C(=O)N1CCC[C@H]1c1nc(-c2ccc(-c3ccc(-c4c[nH]c([C@@H]5CCCN5C(=O)[C@@H](NC(=O)O[C@H]5CCOC5)C(C)C)n4)cc3)cc2)c[nH]1)C(C)C` [Example F54, (3S)-tetrahydro-3-furanyl ((1S)-1-(((2S)-2-(4-(4′-(2-((2S)-1-(N-(methoxycarbonyl)-L-valyl)-2-pyrrolidinyl)-1H-imidazol-4-yl)-4-biphenylyl)-1H-imidazol-2-yl)-1-pyrrolidinyl)carbonyl)-2-methylpropyl)carbamate], the EC50 is reported as 0.001 to 0.999 nM.

Compound `COC(=O)N[C@H](C(=O)N1CCC[C@H]1c1nc(-c2ccc(-c3ccc(-c4c[nH]c([C@@H]5CCCN5C(=O)[C@H](NC5CCOCC5)C(C)C)n4)cc3)cc2)c[nH]1)C(C)C` [Example F52, methyl ((1S)-2-methyl-1-(((2S)-2-(4-(4′-(2-((2S)-1-(N-(tetrahydro-2H-pyran-4-yl)-D-valyl)-2-pyrrolidinyl)-1H-imidazol-4-yl)-4-biphenylyl)-1H-imidazol-2-yl)-1-pyrrolidinyl)carbonyl)propyl)carbamate] has an EC50 of 0.001 to 0.999 nM.

For `COC(=O)N[C@@H](C(=O)N1CCC[C@H]1c1ncc(-c2ccc(-c3ccc(-c4cnc([C@@H]5CCCN5C(=O)[C@H](NC(=O)OC)C5CC5)[nH]4)cc3)cc2)[nH]1)C1CC1` [Example M22, dimethyl (4,4′-biphenyldiylbis(1H-imidazole-5,2-diyl(2S)-2,1-pyrrolidinediyl((1R)-1-cyclopropyl-2-oxo-2,1-ethanediyl)))biscarbamate], the EC50 was 1000 to 10000 nM.

Work on `COC(=O)N[C@@H](Cc1ccccn1)C(=O)N1CCC[C@H]1c1ncc(-c2ccc(-c3ccc(-c4cnc([C@@H]5CCCN5C(=O)[C@@H](NC(=O)OC)C(C)C)[nH]4)cc3)cc2)[nH]1` [cj-65, methyl ((1S)-1-(((2S)-2-(5-(4′-(2-((2S)-1-((2S)-2-((methoxycarbonyl)amino)-3-(2-pyridinyl)propanoyl)-2-pyrrolidinyl)-1H-imidazol-5-yl)-4-biphenylyl)-1H-imidazol-2-yl)-1-pyrrolidinyl)carbonyl)-2-methylpropyl)carbamate] yielded an EC50 of 0.001 to 0.999 nM.
